According to patent US12077503B2, “Substituted cyclic amides and their use as herbicides” (FMC CORPORATION, priority 2015, dated 2024):

Tests used:
Type in all cases: in vivo
[1] = tested on: barnyardgrass (Echinochloa crus-galli); experiment: Test G Pre-Emergence Protocol; details: Echinochloa crus-galli, pre-emergence, 312 h, evaluated after 13 days; for pest or weed control at 15.625 g/ha: 15.625 g ai/ha; for pest or weed control at 15.625 g/ha / pest or weed control at 250 g/ha: read-out: Barnyardgrass damage rating (100=total damage to plant; 0=no damage to plant); for pest or weed control at 62.5 g/ha: 62.5 g ai/ha, 100=total damage to plant, 0=no damage to plant, read-out: Barnyardgrass damage rating; for pest or weed control at 250 g/ha: 250 g ai/ha
Method in brief: (§1)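 Pots of seeds in standard soil were grown for one day in a glasshouse (24/16 °C day/night, 14 h light, 65% humidity), then sprayed with compound in acetone/water 50:50 with 0.5% Tween 20 at 15.625, 62.5 or 250 g/ha. Damage was scored after 13 days on a 0 (none) to 100 (total) scale.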

corn (Zea mays) [2] = experiment: Test G Pre-Emergence Protocol; details: Zea mays, pre-emergence, 312 h, evaluated after 13 days; for plant injury at 15.625 g/ha: 15.625 g ai/ha; for plant injury at 15.625 g/ha / plant injury at 250 g/ha: read-out: Corn damage rating (100=total damage to plant; 0=no damage to plant); for plant injury at 62.5 g/ha: 62.5 g ai/ha, 100=total damage to plant, 0=no damage to plant, read-out: Corn damage rating; for plant injury at 250 g/ha: 250 g ai/ha
Method in brief: as §1

[3] = tested on: giant foxtail (Setaria faberi); experiment: Test G Pre-Emergence Protocol; details: Setaria faberi, pre-emergence, 312 h, evaluated after 13 days; for pest or weed control at 15.625 g/ha: 15.625 g ai/ha; for pest or weed control at 15.625 g/ha / pest or weed control at 250 g/ha: read-out: Foxtail, Giant damage rating (100=total damage to plant; 0=no damage to plant); for pest or weed control at 62.5 g/ha: 62.5 g ai/ha, 100=total damage to plant, 0=no damage to plant, read-out: Foxtail, Giant damage rating; for pest or weed control at 250 g/ha: 250 g ai/ha
Method in brief: as §1

[4] = tested on: ivy-leaved morning glory (Ipomoea hederacea); experiment: Test G Pre-Emergence Protocol; details: Ipomoea, pre-emergence, 312 h, evaluated after 13 days; for pest or weed control at 15.625 g/ha: 15.625 g ai/ha; for pest or weed control at 15.625 g/ha / pest or weed control at 250 g/ha: read-out: Morningglory, Ivy-leaved damage rating (100=total damage to plant; 0=no damage to plant); for pest or weed control at 62.5 g/ha: 62.5 g ai/ha, 100=total damage to plant, 0=no damage to plant, read-out: Morningglory, Ivy-leaved damage rating; for pest or weed control at 250 g/ha: 250 g ai/ha
Method in brief: as §1

[5] = tested on: redroot pigweed (Amaranthus retroflexus); experiment: Test G Pre-Emergence Protocol; details: Amaranthus retroflexus, pre-emergence, 312 h, evaluated after 13 days; for pest or weed control at 15.625 g/ha: 15.625 g ai/ha; for pest or weed control at 15.625 g/ha / pest or weed control at 250 g/ha: read-out: Pigweed, Redroot damage rating (100=total damage to plant; 0=no damage to plant); for pest or weed control at 62.5 g/ha: 62.5 g ai/ha, 100=total damage to plant, 0=no damage to plant, read-out: Pigweed, Redroot damage rating; for pest or weed control at 250 g/ha: 250 g ai/ha
Method in brief: as §1

[6] = tested on: velvetleaf (Abutilon theophrasti); experiment: Test G Pre-Emergence Protocol; details: Abutilon theophrasti, pre-emergence, 312 h, evaluated after 13 days; for pest or weed control at 15.625 g/ha: 15.625 g ai/ha; for pest or weed control at 15.625 g/ha / pest or weed control at 250 g/ha: read-out: Velvetleaf damage rating (100=total damage to plant; 0=no damage to plant); for pest or weed control at 62.5 g/ha: 62.5 g ai/ha, 100=total damage to plant, 0=no damage to plant, read-out: Velvetleaf damage rating; for pest or weed control at 250 g/ha: 250 g ai/ha
Method in brief: as §1

[7] = tested on: barnyardgrass (Echinochloa crus-galli); experiment: Test G Post-Emergence Protocol; details: Echinochloa crus-galli, post-emergence, 312 h, read-out: Barnyardgrass damage rating; for pest or weed control at 15.625 g/ha: 15.625 g ai/ha, evaluated after 13 days (100=total damage to plant; 0=no damage to plant); for pest or weed control at 62.5 g/ha: 62.5 g ai/ha; for pest or weed control at 62.5 g/ha / pest or weed control at 250 g/ha: evaluated after 13 days, 100=total damage to plant, 0=no damage to plant; for pest or weed control at 250 g/ha: 250 g ai/ha
Method in brief: (§2)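 Seedlings grown 8 days in soil in a glasshouse (24/16 °C day/night, 14 h light, 65% humidity) were sprayed post-emergence with compound in acetone/water 50:50 plus 0.5% Tween 20 at 15.625, 62.5 or 250 g/ha. Damage was scored after 13 days on a 0–100 scale (100 = total damage).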

corn (Zea mays) [8] = experiment: Test G Post-Emergence Protocol; details: Zea mays, post-emergence, 312 h, read-out: Corn damage rating; for plant injury at 15.625 g/ha: 15.625 g ai/ha, evaluated after 13 days (100=total damage to plant; 0=no damage to plant); for plant injury at 62.5 g/ha: 62.5 g ai/ha; for plant injury at 62.5 g/ha / plant injury at 250 g/ha: evaluated after 13 days, 100=total damage to plant, 0=no damage to plant; for plant injury at 250 g/ha: 250 g ai/ha
Method in brief: as §2

[9] = tested on: giant foxtail (Setaria faberi); experiment: Test G Post-Emergence Protocol; details: Setaria faberi, post-emergence, 312 h, read-out: Foxtail, Giant damage rating; for pest or weed control at 15.625 g/ha: 15.625 g ai/ha, evaluated after 13 days (100=total damage to plant; 0=no damage to plant); for pest or weed control at 62.5 g/ha: 62.5 g ai/ha; for pest or weed control at 62.5 g/ha / pest or weed control at 250 g/ha: evaluated after 13 days, 100=total damage to plant, 0=no damage to plant; for pest or weed control at 250 g/ha: 250 g ai/ha
Method in brief: as §2

[10] = tested on: ivy-leaved morning glory (Ipomoea hederacea); experiment: Test G Post-Emergence Protocol; details: Ipomoea, post-emergence, 312 h, read-out: Morningglory, Ivy-leaved damage rating; for pest or weed control at 15.625 g/ha: 15.625 g ai/ha, evaluated after 13 days (100=total damage to plant; 0=no damage to plant); for pest or weed control at 62.5 g/ha: 62.5 g ai/ha; for pest or weed control at 62.5 g/ha / pest or weed control at 250 g/ha: evaluated after 13 days, 100=total damage to plant, 0=no damage to plant; for pest or weed control at 250 g/ha: 250 g ai/ha
Method in brief: as §2

[11] = tested on: redroot pigweed (Amaranthus retroflexus); experiment: Test G Post-Emergence Protocol; details: Amaranthus retroflexus, post-emergence, 312 h, read-out: Pigweed, Redroot damage rating; for pest or weed control at 15.625 g/ha: 15.625 g ai/ha, evaluated after 13 days (100=total damage to plant; 0=no damage to plant); for pest or weed control at 62.5 g/ha: 62.5 g ai/ha; for pest or weed control at 62.5 g/ha / pest or weed control at 250 g/ha: evaluated after 13 days, 100=total damage to plant, 0=no damage to plant; for pest or weed control at 250 g/ha: 250 g ai/ha
Method in brief: as §2

[12] = tested on: velvetleaf (Abutilon theophrasti); experiment: Test G Post-Emergence Protocol; details: Abutilon theophrasti, post-emergence, 312 h, read-out: Velvetleaf damage rating; for pest or weed control at 15.625 g/ha: 15.625 g ai/ha, evaluated after 13 days (100=total damage to plant; 0=no damage to plant); for pest or weed control at 62.5 g/ha: 62.5 g ai/ha; for pest or weed control at 62.5 g/ha / pest or weed control at 250 g/ha: evaluated after 13 days, 100=total damage to plant, 0=no damage to plant; for pest or weed control at 250 g/ha: 250 g ai/ha
Method in brief: as §2

| Compound | pest or weed control at 15.625 g/ha [1] [%] | pest or weed control at 62.5 g/ha [1] [%] | pest or weed control at 250 g/ha [1] [%] | plant injury at 15.625 g/ha (corn (Zea mays) [2]) [%] | plant injury at 62.5 g/ha (corn (Zea mays) [2]) [%] | plant injury at 250 g/ha (corn (Zea mays) [2]) [%] | pest or weed control at 15.625 g/ha [3] [%] | pest or weed control at 62.5 g/ha [3] [%] | pest or weed control at 250 g/ha [3] [%] | pest or weed control at 15.625 g/ha [4] [%] | pest or weed control at 62.5 g/ha [4] [%] | pest or weed control at 250 g/ha [4] [%] | pest or weed control at 15.625 g/ha [5] [%] | pest or weed control at 62.5 g/ha [5] [%] | pest or weed control at 250 g/ha [5] [%] | pest or weed control at 15.625 g/ha [6] [%] | pest or weed control at 62.5 g/ha [6] [%] | pest or weed control at 250 g/ha [6] [%] | pest or weed control at 15.625 g/ha [7] [%] | pest or weed control at 62.5 g/ha [7] [%] | also measured |
| --- | --- | --- | --- | --- | --- | --- | --- | --- | --- | --- | --- | --- | --- | --- | --- | --- | --- | --- | --- | --- | --- |
| CN1C[C@@H](c2ccc(C(F)(F)F)cc2)[C@H](C(=O)Nc2cncc(F)n2)C1=O (racemic) [Compound 1657] | 0 | 10 | 20 | 0 | 0 | 0 | 0 | 60 | 80 | 0 | 0 | 0 | 0 | 20 | 50 | 0 | 0 | 0 | 0 | 10 | pest or weed control at 250 g/ha [7]: 40%; plant injury at 15.625 g/ha (corn (Zea mays) [8]): 0%; plant injury at 62.5 g/ha (corn (Zea mays) [8]): 10%; plant injury at 250 g/ha (corn (Zea mays) [8]): 20%; pest or weed control at 15.625 g/ha [9]: 0%; pest or weed control at 62.5 g/ha [9]: 40%; pest or weed control at 250 g/ha [9]: 70%; pest or weed control at 15.625 g/ha [10]: 0%; pest or weed control at 62.5 g/ha [10]: 10%; pest or weed control at 250 g/ha [10]: 30%; pest or weed control at 15.625 g/ha [11]: 0%; pest or weed control at 62.5 g/ha [11]: 40%; pest or weed control at 250 g/ha [11]: 60%; pest or weed control at 15.625 g/ha [12]: 0%; pest or weed control at 62.5 g/ha [12]: 20%; pest or weed control at 250 g/ha [12]: 20% |
| CN1C[C@@H](c2ccc(C(F)(F)F)cc2)[C@H](C(=O)Nc2n[nH]cc2Cl)C1=O (racemic) [Compound 1658] | 0 | 0 | 0 | 0 | 0 | 0 | 0 | 0 | 0 | 0 | 0 | 0 | 0 | 0 | 0 | 0 | 0 | 0 | 0 | 0 | pest or weed control at 250 g/ha [7]: 20%; plant injury at 15.625 g/ha (corn (Zea mays) [8]): 0%; plant injury at 62.5 g/ha (corn (Zea mays) [8]): 0%; plant injury at 250 g/ha (corn (Zea mays) [8]): 10%; pest or weed control at 15.625 g/ha [9]: 0%; pest or weed control at 62.5 g/ha [9]: 0%; pest or weed control at 250 g/ha [9]: 20%; pest or weed control at 15.625 g/ha [10]: 0%; pest or weed control at 62.5 g/ha [10]: 0%; pest or weed control at 250 g/ha [10]: 20%; pest or weed control at 15.625 g/ha [11]: 0%; pest or weed control at 62.5 g/ha [11]: 10%; pest or weed control at 250 g/ha [11]: 40%; pest or weed control at 15.625 g/ha [12]: 0%; pest or weed control at 62.5 g/ha [12]: 0%; pest or weed control at 250 g/ha [12]: 10% |
